In brackets after ≈: the same amount, converted by molar mass. Activity calls are given as the source filed them. No cut-off for these calls is given here.

This is an account of results in ChEMBL document CHEMBL3272101, “Antiviral activity of some beta-diketones. 4. Benzyl diketones. In vitro activity against both RNA and DNA viruses” (1978).

Assay [1] concerns Human alphaherpesvirus 2. As to the kind of experiment: Antiviral activity against Herpesvirus 2. In kind it is functional.
Assay [2] relates to Human alphaherpesvirus 1. As to the kind of experiment: Antiviral activity against Herpes simplex virus 1. In kind it is functional.
For assay [3], the system named is Equine herpesvirus sp. Nature of the assay: Antiviral activity Equine rhinovirus infected in monkey trachea assessed as log reduction in virus yield at 50 ug/ml. Type of assay: functional.
Assay [4] relates to Respiratory syncytial virus. Nature of the assay: Antiviral activity against Respiratory syncytial virus. Type of assay: functional. The note with it: human respiratory syncytial virus.
Assay [5] concerns Human alphaherpesvirus 1. As to the kind of experiment: Antiviral activity against Herper simplex virus 1 Sheely infected in Blue Spruce mouse assessed as host survival rate administered as 5% suspension in 1% gum tragacanth intravaginally, bid using cotton tampons treatment started 4 hrs post-infection for every 24 hrs and second treatment followed 6 hrs later for 7 days measured 14 days post-infection (reference value: 40%). In kind it is functional.

Assay [6] is described as follows: Antiviral activity against Human rhinovirus 17. In kind it is functional, Human rhinovirus B17. The note with it: Rhinovirus B.
Assay [7] concerns Human alphaherpesvirus 1. As to the kind of experiment: Antiviral activity against Herper simplex virus 1 Sheely infected in Blue Spruce mouse assessed as host survival time administered as 10% suspension in 1% gum tragacanth intravaginally, bid using cotton tampons treatment started 4 hrs post-infection for every 24 hrs and second treatment followed 6 hrs later for 7 days (reference value: >10.7 days). In kind it is functional.

Assay [8] deals with Human alphaherpesvirus 1. Nature of the assay: Antiviral activity against Herper simplex virus 1 Sheely infected in Blue Spruce mouse assessed as host survival rate administered as 10% suspension in 1% gum tragacanth intravaginally, bid using cotton tampons treatment started 4 hrs post-infection for every 24 hrs and second treatment followed 6 hrs later for 7 days measured 14 days post-infection (reference value: 40%). Type of assay: functional.

Assay [9] has as its system Equine herpesvirus sp. Nature of the assay: Antiviral activity Equine rhinovirus infected in monkey trachea assessed as log reduction in virus yield at 25 ug/ml. In kind it is functional.
For assay [10], the system named is rhinovirus A2. Nature of the assay: Antiviral activity against Human rhinovirus 2. In kind it is functional. The note with it: Rhinovirus A.
The test system of assay [11] is Influenza A virus. Nature of the assay: Antiviral activity against Influenza A2 Japan 170 virus infected in ferret trachea assessed as reduction in virus yield at 25 ug/ml. In kind it is functional. The note with it: A2 Japan 170, Trachea, in Mustela putorius.
Assay [12] has as its system Human alphaherpesvirus 1. Nature of the assay: Antiviral activity against Herper simplex virus 1 Sheely infected in Blue Spruce mouse assessed as host survival time administered as 5% suspension in 1% gum tragacanth intravaginally, bid using cotton tampons treatment started 4 hrs post-infection for every 24 hrs and second treatment followed 6 hrs later for 7 days (reference value: >10.7 days). In kind it is functional.

In assay [13] the test system is Human respirovirus 3. As to the kind of experiment: Antiviral activity against Parainfluenza virus 3. In kind it is functional.
Assay [14] deals with Equine herpesvirus sp. As to the kind of experiment: Antiviral activity Equine rhinovirus. In kind it is functional.
In assay [15] the test system is Influenza A virus. Nature of the assay: Antiviral activity against Influenza A2 Japan 170 virus infected in ferret trachea assessed as reduction in virus yield at 50 ug/ml. In kind it is functional. The note with it: A2 Japan 170, Trachea, in Mustela putorius.

As to `CCC(=O)C(Cc1ccc(CCc2ccc(OC)cc2)cc1)C(=O)CC`, the MIC in assay [1] amounted to 3 µg/mL (≈ 8.51 µM).

For `CCC(=O)C(Cc1ccc(OC)cc1Cl)C(=O)CC`, in assay [1], the MIC is 50 µg/mL (≈ 177 µM).

In the case of `CCC(=O)C(Cc1ccc(Cc2ccccc2)cc1)C(=O)CC`, the MIC in [1] was determined as 6 µg/mL (≈ 19.5 µM).

`CCC(=O)C(Cc1ccc(Oc2ccc(OC)cc2)cc1)C(=O)CC` had an MIC in assay [1] of 3 µg/mL (≈ 8.81 µM).

`CCC(=O)C(Cc1ccc(Cc2ccc(O)cc2)cc1)C(=O)CC` came in with an MIC in [1] of 3 µg/mL (≈ 9.25 µM).

Regarding `CCC(=O)C(CC1CCC(Cc2ccc(OC)cc2)CC1)C(=O)CC` (configuration not stated), the MIC in assay [1] is 6 µg/mL (≈ 17.4 µM).

Take `CCC(=O)C(Cc1ccc(/C=C/c2ccc(OC)cc2)cc1)C(=O)CC`: the MIC amounted to 0.7 µg/mL (≈ 2 µM) in assay [2]; 1.5 µg/mL (≈ 4.28 µM) in assay [4]; 1.25 µg/mL (≈ 3.57 µM) in [1]; 0.3 µg/mL (≈ 0.856 µM) in assay [6]; 0.2 µg/mL (≈ 0.571 µM) in [10]; 3 µg/mL (≈ 8.56 µM) in assay [13]. Also, the MIC in assay [14] was 0.06 µg/mL (≈ 0.171 µM). The LCK in [3] worked out at 2; in [9] it was 1.7. The values for the Survival in assay [5] and in assay [8] were 50% and 60%, respectively. Moreover, the values for the Time in assay [7] and in assay [12] were over 11.4 days and over 11.3 days, respectively. In assay [11], the inhibition at 25 µg/mL amounted to 0%. For the same compound, in assay [15], the inhibition at 50 µg/mL came out at 0%.

For `CCC(=O)C(Cc1ccc(C)cc1)C(=O)CC`, the MIC entry in assay [1] was “inactive”.

`CCC(=O)C(Cc1ccc(/C=C/c2ccc(O)cc2Cl)cc1)C(=O)CC` yielded an MIC in assay [1] of 1.5 µg/mL (≈ 4.04 µM).

For the compound `CCC(=O)C(Cc1ccc(Cc2ccc(OC)cc2)cc1)C(=O)CC`, in [1], the MIC worked out at 6 µg/mL (≈ 17.7 µM).

Turning to `CCC(=O)C(C[C@H]1CC[C@@H](COc2ccc(OC)cc2Cl)CC1)C(=O)CC`, the MIC in assay [1] is 6 µg/mL (≈ 15.2 µM).

Turning to `CCC(=O)C(Cc1ccc(/C=C/c2ccccc2)cc1)C(=O)CC`, the MIC entry in [1] was “inactive”.

For the compound `CCC(=O)C(Cc1ccc(/C=C/c2ccc(OC)cc2Cl)cc1Cl)C(=O)CC`, in assay [1], the MIC result was “inactive”.

`CCC(=O)C(Cc1ccc(/C=C/c2ccc(Cl)cc2)cc1)C(=O)CC`: in assay [1], the MIC entry is “inactive”.

On to `CCC(=O)C(Cc1ccc(OC)cc1)C(=O)CC`, for which the MIC result in assay [1] was “inactive”.

Regarding `CCC(=O)C(Cc1ccc(/C=C/c2ccc(O)cc2)cc1)C(=O)CC`, in assay [1], the MIC was 1.5 µg/mL (≈ 4.46 µM).

As to `CCC(=O)C(Cc1ccc(O)cc1)C(=O)CC`, the MIC result in assay [1] is “inactive”.

On to `CCC(=O)C(Cc1ccc(/C=C/c2ccc(OC)cc2Cl)cc1)C(=O)CC`, for which, in [1], the MIC is 1.5 µg/mL (≈ 3.9 µM).

In general, inhibition refers to the share of the control response that was lost under treatment.
